Experimental data taken from patent US20080276732A1, “INDICATOR FOR ORALLY ADMINISTERED COMPOSITIONS” (MULTI FORMULATIONS LTD., priority 2007, published 2008).
Values joined by “and” are separate entries in the source; they are usually repeats but may differ in a detail not shown here. Equal values may be shown once. “Also recorded” adds a separate entry of the source. Read-outs that look alike come from different tables or passages of the source.

Tests used:
subjects [1] = assay: Testing the efficacy of Yohimbine in capsule form: perceived sensory effects after oral administration; format: in vivo, human
Method: In order to test the ability of orally administered Yohimbine to induce a sensory effect a test was conducted. Four subjects were given a capsule containing Yohimbine and asked to report on any perceived sensory effects. Each capsule contained 5 mg of Yohimbine and filled to 150 mg with lactose as a filler-binder.

subjects [2] = settings: single 30 mg oral dose of Niacin
Method: In order to test the ability of orally administered Niacin to induce a sensory effect a test was conducted. Five subjects were given a capsule containing Niacin and asked to report on any perceived sensory effects. Each capsule contained 30 mg of Niacin and filled to 150 mg with lactose as a filler-binder. Subjects were informed of the capsule contents and of possible effects. Subjects were asked to report any sensory effects felt, the time to onset and the duration of any effects.

individuals = settings: Niacin at pharmacologically active doses; Benyo et al. 2005; cited from earlier work
subjects [3] = assay: Testing the efficacy of Picamilon in capsule form: perceived sensory effects after oral administration; format: in vivo, human; settings: single 100 mg oral dose of Picamilon
Method: In order to test the ability of orally administered Picamilon to induce a sensory effect a test was conducted. Six subjects were given a capsule containing Picamilon and asked to report on any perceived sensory effects. Each capsule contained 100 mg of Picamilon and filled to 150 mg with lactose as a filler-binder.

[4] = single 5 mg oral dose of Yohimbine, per subject
[5] = per subject, subject 1 separately for warmth and tingling

Compound: COC(=O)[C@@H]1[C@H]2C[C@H]3c4[nH]c5ccccc5c4CCN3C[C@@H]2CC[C@@H]1O [Yohimbine]
- onset time and duration of perceived sensory effects on average compared with Niacin and Picamilon (subjects [1]; 5 mg Yohimbine, oral): longer onset time and longer duration
- subjects who reported noticeable effects (subjects [1]; single 5 mg oral dose of Yohimbine, four subjects): three of the four
- Duration (subjects [1]; [4]): 10 to 15 min and 60 min and 120 min
- Time to Onset (subjects [1]; [4]): 1 h and 0.5 h and 0.25 h

Compound: O=C(O)c1cccnc1 [Niacin, nicotinic acid]
- Duration (subjects [2]; capsule, one line per subject): 45 min (2×) and 15 min
- Time to Onset (subjects [2]; capsule, one line per subject): 10 to 15 min and 20 min and 15 min
- subjects who experienced transient sensory effects (subjects [2]; five subjects): three of the five
- time until the individual perceives a sensory effect (summary) (subjects [2]; summary of Table 1): ≤ 15 min
- duration of the flushing effect (individuals): about 1 hr

Compound: O=C(O)CCCNC(=O)c1cccnc1 [Picamilon, N-nicotinoyl-gamma-aminobutyric acid]
- Sensory Effect(s) (subjects [3]; capsule, one line per subject (1-6)): tingling; also recorded: relaxation; also recorded: warmth - body
- Duration (subjects [3]; per subject): 1.5 h
- Duration (subjects [3]; [5]): 15-20 min and 45 min and 5 min (warmth) and 15 min
- Time to Onset (subjects [3]; [5]): 15 min and 15-20 min (2×) and 10 min (warmth) and 30 min
- subjects who reported noticeable effects (subjects [3]; six subjects): four of the six
